These results are taken from paper PMC8119899, “A Single Mutation in the Outer Lipid-Facing Helix of a Pentameric Ligand-Gated Ion Channel Affects Channel Function Through a Radially-Propagating Mechanism” (Frontiers in Molecular Biosciences, 2021).

Experiment [1] has as its target T1, WT 5-HT3A receptor (Mus musculus, UniProt P23979).
T1 construct: expressed in transfected cells; host or cells: HEK293
T1 sequence (P23979 24-483 isoform P23979-2 limits assumed): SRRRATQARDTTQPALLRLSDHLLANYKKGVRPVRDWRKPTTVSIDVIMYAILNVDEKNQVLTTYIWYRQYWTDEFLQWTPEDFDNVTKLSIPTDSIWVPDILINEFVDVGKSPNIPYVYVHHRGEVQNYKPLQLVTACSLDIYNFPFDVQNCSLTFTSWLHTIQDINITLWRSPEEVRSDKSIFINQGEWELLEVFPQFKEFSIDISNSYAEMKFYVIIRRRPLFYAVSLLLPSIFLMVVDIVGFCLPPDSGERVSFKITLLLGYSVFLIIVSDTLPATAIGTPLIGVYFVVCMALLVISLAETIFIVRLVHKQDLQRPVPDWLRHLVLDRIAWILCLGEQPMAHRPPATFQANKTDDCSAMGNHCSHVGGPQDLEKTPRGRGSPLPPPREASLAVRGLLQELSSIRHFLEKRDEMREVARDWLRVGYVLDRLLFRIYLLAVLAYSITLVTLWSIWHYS
Nature of the experiment: FlexStation membrane potential dye, 5-HT response, WT receptor in HEK293 cells. The class given is cell-based. The following applies: mean and SEM, n ≥ 3. On the procedure: (§1) The mouse 5-HT3A cDNA (Q6J1J7) in pcDNA3.1 (for HEK cell transfection) or pGEMHE (for RNA production) was modified by QuikChange site-directed mutagenesis (Agilent Technologies) to create point mutants (verified by sequencing).
Human embryonic kidney (HEK) 293 cells were maintained at 37 °C at 5% CO2 in a humidified atmosphere, in Dulbecco's Modified Eagle's Medium/Nutrient Mix F12 (1:1) (Invitrogen, Paisley, UK) with GlutaMAX^TM and 10% fetal bovine serum (GE Healthcare) (DMEM/FBS) and passaged when confluent.
As described previously (Price and Lummis, [2005]) cells were incubated for 45 min with fluorescent membrane potential-sensitive dye (Membrane Potential Blue kit, Molecular Devices) diluted in Flex buffer (10 mM HEPES, 115 mM NaCl, 1 mM KCl, 1 mM CaCl2, 1 mM MgCl2, and 10 mM glucose, pH 7.4), and subsequently assayed at room temperature for 180 s, with readings every 2 s. […] (log of the concentration of ligand), a is the minimum response, b is the maximum response, and nH is the Hill slope.

In experiment [2] the target is T2, 5-HT3A receptor K255A (Mus musculus, UniProt P23979, K282A).
T2 sequence (P23979 24-489 K282A): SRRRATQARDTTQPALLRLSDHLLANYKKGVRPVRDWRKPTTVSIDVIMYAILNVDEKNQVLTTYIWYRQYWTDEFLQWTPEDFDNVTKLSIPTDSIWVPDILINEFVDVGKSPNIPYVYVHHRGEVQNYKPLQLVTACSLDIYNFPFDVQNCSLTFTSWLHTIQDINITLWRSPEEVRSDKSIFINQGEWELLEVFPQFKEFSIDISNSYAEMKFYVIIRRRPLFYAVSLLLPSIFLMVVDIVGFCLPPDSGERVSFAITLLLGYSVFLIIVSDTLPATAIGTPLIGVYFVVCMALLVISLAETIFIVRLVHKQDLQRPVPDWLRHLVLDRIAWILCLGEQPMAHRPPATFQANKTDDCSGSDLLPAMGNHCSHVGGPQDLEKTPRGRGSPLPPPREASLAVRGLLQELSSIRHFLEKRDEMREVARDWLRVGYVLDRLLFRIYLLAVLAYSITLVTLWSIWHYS
The experiment in a line: Two-electrode voltage clamp, 5-HT response, K255A receptor in Xenopus oocytes. It counts as cell-based. The following applies: mean and SEM, n ≥ 3. On the procedure: as §1
(§2) Xenopus laevis oocytes from EcoCyte Biosciences (Austin Texas) were injected with 100 pg cRNA (generated with the ThermoFisher mMESSAGE mMACHINE T7 transcription kit) and left in injection media [88 mM NaCl, 2.4 mM NaHCO3, 1 mM KCl, 0.82 mM MgSO4 ·7H20, 5 mM Tris-HCl, 0.33 mM Ca(NO3)2·4H2O, 0.41 mM CaCl2·2H2O, 2.51 mM sodium pyruvate, 0.12 mg/ml theophylline, 0.05 mg/ml gentamicin, pH 7.5] at 16 °C for 24 h. […] The holding potential was −60 mV, using glass microelectrodes with a resistance of approximately 1 MΩ backfilled with 3M KCl.

Experiment [3] deals with T3, 5-HT3A receptor C290A (Mus musculus, UniProt P23979, C317A).
T3 sequence (P23979 24-489 C317A): T2 sequence (P23979 24-489 K282A) with A259K, C294A
The experiment in a line: Two-electrode voltage clamp, 5-HT response, C290A receptor in Xenopus oocytes. The following applies: mean and SEM, n ≥ 3. It counts as cell-based. On the procedure: as §1, §2
A general note: Two-electrode voltage clamp is typically applied to oocytes expressing channels or transporters.

Experiment [4] concerns the target T4, 5-HT3A receptor Y441A (Mus musculus, UniProt P23979, Y468A).
T4 sequence (P23979 24-489 Y468A): T2 sequence (P23979 24-489 K282A) with A259K, Y445A
Also noted: expressed in transfected cells; method as in Mesoy et al., [2019]. The settings on record: HEK293 cells, ref Mesoy et al., [2019]; cited from earlier work.

The target in experiment [5] is T4, 5-HT3A receptor Y441A. Nature of the experiment: Two-electrode voltage clamp, 5-HT response, Y441A receptor in Xenopus oocytes. Also noted: expressed in transfected cells; host or cells: Xenopus laevis oocytes (cRNA injection). The class given is cell-based. The following applies: mean and SEM, n ≥ 3. How it is done: as §1, §2

Residue numbers refer to the chain shown, from its start.

As for `NCCc1c[nH]c2ccc(O)cc12` [5-HT], the “nH (Hill slope)” value in experiment [1] came to 3.7 ± 0.3. Further, the nH in experiment [2] amounted to 1.9 ± 0.5; in experiment [3], 0.5 ± 0.1; in experiment [5] it was 1.0 ± 0.1. In addition, the “response to application of 5-HT” value in experiment [4] is given as “Neither Y441A nor D238A responded”.
